From patent US20200164047A1, “THERAPY AND DIAGNOSIS OF DISEASE CHARACTERIZED BY ALTERATIONS IN THE DNA DAMAGE RESPONSE” (UNIVERSITÀ DEGLI STUDI DI MILANO, priority 2017, published 2020) come the findings set out here.

SMILES strings stand for the structures.

One assay relates to cancer cells. Briefly: Lactate production and glucose consumption of cancer cells. The format is cell-based. Particulars: metformin treatment. The protocol: FIG. 20. […] (F, G) Quantification of oxygen consumption rate normalized by cell numbers of cells cultured in DMEM medium containing the indicated concentrations of glucose for 12 hours (F) or in DMEM medium containing with 2.5 mM glucose for the indicated time points (G).
Lactate production was measured using Lactate Assay Kit (Sigma Aldrich) according to manufacturer's instructions.

The test system of another assay is HCT116 and HeLa cells. The following applies: low glucose conditions plus metformin, 24 h. How it is done: FIG. 14. […] (A) Images of HCT116 and HeLa cells cultured for 24 hours in either nutrient-rich DMEM (containing 10% FBS and 10 mM glucose), DMEM containing 2.5 mM glucose (glucose deprivation), DMEM with 0.1% serum (serum deprivation) or DMEM with no glutamine, no methionine and no cysteine (amino acids deprivation). Media were replenished every 6 hours. (B) Quantification of cell death of HCT116 and HeLa cells cultured as in A as measured by propidium iodide uptake using flow cytometry. […] Media were replenished every 6 hours.
(§1) FIG. 31. […] (B) Immunoblotting analysis of total cell lysates used for immunoprecipitation in (A).
Cells were harvested by trypsinization, washed in PBS (pH 7.2), and then stained with propidium iodide (10 mg/ml) added immediately prior to analysis. Cell fluorescence was then measured on a flow cytometer (FACSCalibur; Becton Dickinson, CA) and analyzed using CellQuest software.

A further assay deals with PP2A-GSK3β-MCL-1 axis. Briefly: Immunoblotting of phosphorylated GSK3β, MCL-1 and CIP2A. The format is cell-based. Particulars: HCT116 and HeLa. How it is done: FIG. 16. […] (A, B) Immunoblotting analysis of lysates derived from HCT116 and HeLa cells cultured for 24 hours in either nutrient-rich DMEM (containing 10% FBS and 10 mM glucose), DMEM containing 2.5 mM glucose (glucose deprivation), DMEM with 0.1% serum (serum deprivation) or DMEM with no glutamine, no methionine and no cysteine (amino acids deprivation). Media were replenished every 6 hours.
as §1
Whole cell lysates were prepared by directly lysing cells growing in culturing dishes or collected cell pellets in lysis buffer (40 mM Hepes pH 7.5, 120 mM NaCl, 1 mM EDTA, 10 mM pyrophosphate, 10 mM glycerophosphate, 50 mM NaF, 0.5 mM orthovanadate, and EDTA-free protease inhibitors (Roche) containing 0.3% CHAPS). Lysates were prepared from frozen tumors using GentleMACS dissociator. Lysates were cleared by centrifugation at 13000 g for 15 min. at 4° C., quantified using BioRad DC protein assay reagent followed by mixing 1:1 with 4% SDS, 100 mM Tris.Cl pH 6.8, 20% glycerol, 0.1% bromophenol blue and 5% β-mercaptoethanol added immediately before use and heating at 94° C. for 7 min. Equal amounts of proteins were then electrophoresed on 8-15% SDS-PAGE gels. Gels were run at 100 V (stacking gel)/150 V (separation gel) on Protean III apparatus (BioRad). Gels were transferred onto nitrocellulose and probed with the appropriate primary antibody for a variable incubation time depending on the experimental design, followed by the corresponding secondary antibodies diluted 1:5000-10000. The proteins were visualized by enhanced chemiluminescence (ECL) using ChemiDoc apparatus (BioRad) according to the manufacturer's instructions.
Background: Immunoblotting shows a protein as a band on a membrane.

Consider `CN(C)C(=N)NC(=N)N.Cl` [metformin], for which the “glucose consumption and lactate production” value in the assay on cancer cells is “dose and time-dependent increase in glucose consumption and lactate production”. For the same molecule, the cell death entry in the assay with HCT116 and HeLa cells is reported as “marked cell death”. The GSK3β phosphorylation result with PP2A-GSK3β-MCL-1 axis (low glucose-metformin combination) was “almost completely abolished GSK3β phosphorylation”. Also, the MCL-1 protein levels entry in the assay with PP2A-GSK3β-MCL-1 axis (metformin in low glucose) is given as “marked reduction in MCL-1 protein levels”. Also, the “level of CIP2A” value in the assay with PP2A-GSK3β-MCL-1 axis (metformin treatment) is “reduction in the level of CIP2A”.
